Experimental data published in US9738634B2, “Heterocyclic amide compound and herbicide” (SYNGENTA PARTICIPATIONS AG, priority 2013, dated 2017).

Legend:
Type in all cases: in vivo
barnyard grass [1] = test: Test Example 1: weedkilling efficacy, preemergent weed treatment in the submerged state; A: barnyard grass; conditions: treatment dosage 320 g/ha
In short: (§1)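 Visual scores against set criteria were taken 3 weeks after treatment. Compounds, as diluted emulsions at specified g/ha, went onto the water surface of 4 cm-flooded alluvial soil pots on the day weeds were sown and 2.5-leaf rice was transplanted; greenhouse held 25–30 °C.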

bulrush [2] = test: Test Example 1: weedkilling efficacy, preemergent weed treatment in the submerged state; B: bulrush; conditions: treatment dosage 320 g/ha
In short: as §1

oval-leafed pondweed [3] = test: Test Example 1: weedkilling efficacy, preemergent weed treatment in the submerged state; C: oval-leafed pondweed; conditions: treatment dosage 320 g/ha
In short: as §1

transplanted rice = test: Test Example 1: preemergent weed treatment in the submerged state, effect on crop; a: transplanted rice; conditions: treatment dosage 320 g/ha
In short: as §1

barnyard grass [4] = test: Test Example 2: weedkilling efficacy, growth period weed treatment in the submerged state; A: barnyard grass; conditions: treatment dosage 320 g/ha
In short: (§2)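 Barnyard grass, bulrush and oval-leafed pondweed sown in alluvial soil under 4 cm flooding, greenhouse 25 to 30° C. At 1-2 leaf stage, water-diluted emulsion applied to the water surface at stated g/ha dosages; effects scored 3 weeks later.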

bulrush [5] = test: Test Example 2: weedkilling efficacy, growth period weed treatment in the submerged state; B: bulrush; conditions: treatment dosage 320 g/ha
In short: as §2

oval-leafed pondweed [6] = test: Test Example 2: weedkilling efficacy, growth period weed treatment in the submerged state; C: oval-leafed pondweed; conditions: treatment dosage 320 g/ha
In short: as §2

crabgrass = test: Test Example 3: weedkilling efficacy through soil treatment; D: crabgrass; conditions: soil treatment, treatment dosage 320 g/ha
In short: (§3)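 Crop and weed responses were judged three weeks after a uniform surface spray of the water-diluted emulsion at the given g/ha rate. Seeds sat beneath about 1.5 cm of sterilized diluvial soil, and boxes stood in a greenhouse at 25 to 30° C.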

green foxtail = test: Test Example 3: weedkilling efficacy through soil treatment; E: green foxtail; conditions: soil treatment, treatment dosage 320 g/ha
In short: as §3

barnyard grass [7] = test: Test Example 3: weedkilling efficacy through soil treatment; F: barnyard grass; conditions: soil treatment, treatment dosage 320 g/ha
In short: as §3

wild oat = test: Test Example 3: weedkilling efficacy through soil treatment; G: wild oat; conditions: soil treatment, treatment dosage 320 g/ha
In short: as §3

black-grass = test: Test Example 3: weedkilling efficacy through soil treatment; H: black-grass; conditions: soil treatment, treatment dosage 320 g/ha
In short: as §3

Italian ryegrass = test: Test Example 3: weedkilling efficacy through soil treatment; I: Italian ryegrass; conditions: soil treatment, treatment dosage 320 g/ha
In short: as §3

common wind-grass = test: Test Example 3: weedkilling efficacy through soil treatment; J: common wind-grass; conditions: soil treatment, treatment dosage 320 g/ha
In short: as §3

Indian mallow = test: Test Example 3: weedkilling efficacy through soil treatment; K: Indian mallow; conditions: soil treatment, treatment dosage 320 g/ha
In short: as §3

redroot pigweed = test: Test Example 3: weedkilling efficacy through soil treatment; L: redroot pigweed; conditions: soil treatment, treatment dosage 320 g/ha
In short: as §3

fig-leafed goosefoot = test: Test Example 3: weedkilling efficacy through soil treatment; M: fig-leafed goosefoot; conditions: soil treatment, treatment dosage 320 g/ha
In short: as §3

chickweed = test: Test Example 3: weedkilling efficacy through soil treatment; N: chickweed; conditions: soil treatment, treatment dosage 320 g/ha
In short: as §3

catchweed = test: Test Example 3: weedkilling efficacy through soil treatment; O: catchweed; conditions: soil treatment, treatment dosage 320 g/ha
In short: as §3

birds-eye speedwell = test: Test Example 3: weedkilling efficacy through soil treatment; p: birds-eye speedwell; conditions: soil treatment, treatment dosage 320 g/ha
In short: as §3

directly sown rice = test: Test Example 3: soil treatment, effect on crop; b: directly sown rice; conditions: soil treatment, treatment dosage 320 g/ha
In short: as §3

corn = test: Test Example 3: soil treatment, effect on crop; c: corn; conditions: soil treatment, treatment dosage 320 g/ha
In short: as §3

soybean = test: Test Example 3: soil treatment, effect on crop; d: soybean; conditions: soil treatment, treatment dosage 320 g/ha
In short: as §3

wheat = test: Test Example 3: soil treatment, effect on crop; e: wheat; conditions: soil treatment, treatment dosage 320 g/ha
In short: as §3

beet = test: Test Example 3: soil treatment, effect on crop; f: beet; conditions: soil treatment, treatment dosage 320 g/ha
In short: as §3

rapeseed = test: Test Example 3: soil treatment, effect on crop; g: rapeseed; conditions: soil treatment, treatment dosage 320 g/ha
In short: as §3

Compound: CC(C)(C(=O)Nc1cc(C(F)F)ccn1)N1COCN(c2ccccc2)C1=O [A-2-40]
- A: barnyard grass, weed kill grade (barnyard grass [1]): 5 (weed kill ratio 90% or more, (practically complete withering))
- B: bulrush, weed kill grade (bulrush [2]): 5 (weed kill ratio 90% or more, (practically complete withering))
- C: oval-leafed pondweed, weed kill grade (oval-leafed pondweed [3]): 5 (weed kill ratio 90% or more, (practically complete withering))
- a: transplanted rice, effect on crop grade (transplanted rice): 1 (weed kill ratio 5% or more, less than 20%)
- A (barnyard grass) weedkilling efficacy grade (barnyard grass [4]): 5 (weed kill ratio 90% or more, (practically complete withering))
- B (bulrush) weedkilling efficacy grade (bulrush [5]): 5 (weed kill ratio 90% or more, (practically complete withering))
- C (oval-leafed pondweed) weedkilling efficacy grade (oval-leafed pondweed [6]): 5 (weed kill ratio 90% or more, (practically complete withering))
- D: crabgrass, weedkilling efficacy grade (crabgrass): 5 (weed kill ratio 90% or more, (practically complete withering))
- E: green foxtail, weedkilling efficacy grade (green foxtail): 5 (weed kill ratio 90% or more, (practically complete withering))
- F: barnyard grass, weedkilling efficacy grade (barnyard grass [7]): 5 (weed kill ratio 90% or more, (practically complete withering))
- G: wild oat, weedkilling efficacy grade (wild oat): 5 (weed kill ratio 90% or more, (practically complete withering))
- H: black-grass, weedkilling efficacy grade (black-grass): 5 (weed kill ratio 90% or more, (practically complete withering))
- I: Italian ryegrass, weedkilling efficacy grade (Italian ryegrass): 5 (weed kill ratio 90% or more, (practically complete withering))
- J: common wind-grass, weedkilling efficacy grade (common wind-grass): 5 (weed kill ratio 90% or more, (practically complete withering))
- K: Indian mallow, weedkilling efficacy grade (Indian mallow): 4 (weed kill ratio 70% or more, less than 90%)
- L: redroot pigweed, weedkilling efficacy grade (redroot pigweed): 4 (weed kill ratio 70% or more, less than 90%)
- M: fig-leafed goosefoot, weedkilling efficacy grade (fig-leafed goosefoot): 4 (weed kill ratio 70% or more, less than 90%)
- N: chickweed, weedkilling efficacy grade (chickweed): 4 (weed kill ratio 70% or more, less than 90%)
- O: catchweed, weedkilling efficacy grade (catchweed): 5 (weed kill ratio 90% or more, (practically complete withering))
- P: birds-eye speedwell, weedkilling efficacy grade (birds-eye speedwell): 5 (weed kill ratio 90% or more, (practically complete withering))
- b: directly sown rice, effect on crop grade (directly sown rice): 5 (weed kill ratio 90% or more, (practically complete withering))
- c: corn, effect on crop grade (corn): 2 (weed kill ratio 20% or more, less than 40%)
- d: soybean, effect on crop grade (soybean): 3 (weed kill ratio 40% or more, less than 70%)
- e: wheat, effect on crop grade (wheat): 1 (weed kill ratio 5% or more, less than 20%)
- f: beet, effect on crop grade (beet): 4 (weed kill ratio 70% or more, less than 90%)
- g: rapeseed, effect on crop grade (rapeseed): 4 (weed kill ratio 70% or more, less than 90%)
